The values that follow come from patent publication US6667413B2, “Uracil compounds and use thereof” (Sumitomo Chemical Company, Limited, priority 1999, dated 2003).

Holding throughout (format): in vivo
Assay [1] deals with barnyardgrass (Echinochloa crus-galli). Nature of the assay: Test Example 2: soil surface treatment, herbicidal activity. As to conditions: sprayed over the surface of the soil, 500 g/ha, 7 days after application. An excerpt:
(§1) A cylindrical plastic pot having a diameter of 10 cm and a depth of 10 cm was filled with soil and then seeded with Ivyleaf morningglory (Ipomoea hederacea), velvetleaf (Abutilon theophrasti) and barnyardgrass (Echinochloa crus-galli). Then, each of the compounds 1-1,2-1 and 3-1 was formulated into an emulsifiable concentrate according to Formulation Example 2 and then diluted to the prescribed amount with water, and the dilution was uniformly sprayed over the surface of the soil with a sprayer at a rate of 1000 liters per hectare. After the application, the test plants were grown in the greenhouse for 7 days, and the herbicidal activity of the applied composition was examined.

The test system of assay [2] is Ivyleaf morningglory (Ipomoea hederacea). The assay is described as above. As to conditions: sprayed over the surface of the soil, 500 g/ha, 7 days after application.
Description: as §1

The subject of assay [3] is velvetleaf (Abutilon theophrasti). The description is as above. To be noted: sprayed over the surface of the soil, 500 g/ha, 7 days after application.
Description: as §1

Assay [4] deals with barnyardgrass (Echinochloa crus-galli). Put plainly: Test Example 1: foliar treatment, herbicidal activity. As to conditions: foliar spray, 125 g/ha, 7 days after application. How it is done: (§2) A cylindrical plastic pot having a diameter of 10 cm and a depth of 10 cm was filled with soil and then seeded with Ivyleaf morningglory (Ipomoea hederacea), velvetleaf (Abutilon theophrasti), barnyardgrass (Echinochloa crus-galli) and blackgrass (Alopecurus myosuroides). These test plants were grown in a greenhouse for 9 days. Then, each of compounds 1-1,2-1, 3-1,3-2, 3-11 and 3-12 was formulated into an emulsifiable concentrate according to Formulation Example 2 and then diluted to the prescribed amount with water containing a spreading agent and the dilution was uniformly sprayed over the foliage of the test plants with a sprayer at a rate of 1000 liters per hectare After the application, the test plants were grown in the greenhouse for 7 days, and the herbicidal activity of the applied composition was determined.

Assay [5] concerns blackgrass (Alopecurus myosuroides). The assay is described as above. To be noted: foliar spray, 125 g/ha, 7 days after application. As to the method: as §2
The subject of assay [6] is Ivyleaf morningglory (Ipomoea hederacea). Described as above. As to conditions: foliar spray, 125 g/ha, 7 days after application. As to the method: as §2
Assay [7] relates to velvetleaf (Abutilon theophrasti). The assay is described as above. To be noted: foliar spray, 125 g/ha, 7 days after application. As to the method:
as §2

Assay [8] has as its system common chickweed (Stellaria media). Put plainly: Test Example 5: foliar treatment, herbicidal activity index. Set-up: key: 0: no or little difference in the degree of germination or growth between the treated and the untreated tested plants at the time of examination; 10: the test plants died complete or their germination or growth was completely inhibited. To be noted: foliar spray, 10 g/ha, 9 days after application, index 0 to 10. As to the method: A cylindrical plastic pot having a diameter of 18.5 cm and a depth of 15 cm was filled with soil and then seeded with common chickweed (Stellaria media). These test plants were grown in a greenhouse for 29 days. After then, each of the compound 1-2 and Compound A was formulated into an emulsifiable concentrate according to Formulation Example 2 and then diluted to the prescribed amount with water containing a spreading agent and the dilution was uniformly sprayed over the foliage of the test plants with a sprayer at a rate of 1000 liters per hectare. After the application, the test plants were grown in the greenhouse for 9 days, and the herbicidal activity was examined.

Assay [9] has as its system barnyardgrass (Echinochloa crus-galli). Put plainly: Test Example 3: foliar treatment, herbicidal activity. As to conditions: foliar spray, 500 g/ha, 7 days after application. How it is done: (§3) A cylindrical plastic pot having a diameter of 10 cm and a depth of 10 cm was filled with soil and then seeded with Ivyleaf morningglory (Ipomoea hederacea), velvetleaf (Abutilon theophrasti) and barnyardgrass (Echinochloa crus-galli). These test plants were grown in a greenhouse for 9 days. After then, each of the compounds 3-16, 3-20 and 3-198 was formulated into an emulsifiable concentrate according to Formulation Example 2 and then diluted to the prescribed amount with water containing a spreading agent and the dilution was uniformly sprayed over the foliage of the test plants with a sprayer at a rate of 1000 liters per hectare. After the application, the test plants were grown in the greenhouse for 7 days, and the herbicidal activity was examined.

The subject of assay [10] is Ivyleaf morningglory (Ipomoea hederacea). The assay is described as above. As to conditions: foliar spray, 500 g/ha, 7 days after application. As to the method: as §3
The subject of assay [11] is velvetleaf (Abutilon theophrasti). The description is as above. As to conditions: foliar spray, 500 g/ha, 7 days after application. As to the method:
as §3

In assay [12] the test system is barnyardgrass (Echinochloa crus-galli). Nature of the assay: Test Example 4: soil surface treatment, herbicidal activity. To be noted: sprayed over the surface of the soil, 2000 g/ha, 7 days after application.
Description: as §1, with “theophrasti),” for “theophrasti) and”, “crus-galli) and blackgrass (Alopecurus myosuroides).” for “crus-galli).”, “3-2,3-11, 3-12, 3-16, 3-20” for “1-1,2-1”, “3-198” for “3-1”

Assay [13] relates to blackgrass (Alopecurus myosuroides). The description is as above. To be noted: sprayed over the surface of the soil, 2000 g/ha, 7 days after application.
Description: as §1, with “theophrasti),” for “theophrasti) and”, “crus-galli) and blackgrass (Alopecurus myosuroides).” for “crus-galli).”, “3-2,3-11, 3-12, 3-16, 3-20” for “1-1,2-1”, “3-198” for “3-1”

For assay [14], the system named is Ivyleaf morningglory (Ipomoea hederacea). The assay is described as above. As to conditions: sprayed over the surface of the soil, 2000 g/ha, 7 days after application.
Description: as §1, with “theophrasti),” for “theophrasti) and”, “crus-galli) and blackgrass (Alopecurus myosuroides).” for “crus-galli).”, “3-2,3-11, 3-12, 3-16, 3-20” for “1-1,2-1”, “3-198” for “3-1”

In assay [15] the test system is velvetleaf (Abutilon theophrasti). Described as above. As to conditions: sprayed over the surface of the soil, 2000 g/ha, 7 days after application.
Description: as §1, with “theophrasti),” for “theophrasti) and”, “crus-galli) and blackgrass (Alopecurus myosuroides).” for “crus-galli).”, “3-2,3-11, 3-12, 3-16, 3-20” for “1-1,2-1”, “3-198” for “3-1”

Regarding `COC(=O)C(C)Oc1ccc(Oc2cc(-n3c(=O)cc(C(F)(F)F)n(C)c3=O)c(F)cc2Cl)cc1` (centres unmarked) [Compound 1-1, methyl 2-[4-{2-chloro-4-fluoro-5-[3-methyl-2,6-dioxo-4-(trifluoromethyl)-1,2,3,6-tetrahydropyrimidin-1-yl]phenoxy}phenoxy]propionate], the emergence of barnyardgrass entry in assay [1] is recorded as “completely controlled”. The “emergence of Ivyleaf morningglory” value in assay [2] is recorded as “completely controlled”. Also, the emergence of velvetleaf entry in [3] is listed as “completely controlled”. Also, in assay [4], the growth of barnyardgrass entry is “completely controlled”. In assay [5], the growth of blackgrass result is given as “completely controlled”. Moreover, the “growth of Ivyleaf morningglory” value in assay [6] is “completely controlled”. The growth of velvetleaf entry in assay [7] was “completely controlled”.
For the compound `CCOC(=O)C(C)Oc1ccc(Oc2cc(-n3c(=O)cc(C(F)(F)F)n(C)c3=O)c(F)cc2Cl)cc1` (centres unmarked) [Compound 1-2, ethyl 2-[4-{2-chloro-4-fluoro-5-[3-methyl-2,6-dioxo-4-(trifluoromethyl)-1,2,3,6-tetrahydropyrimidin-1-yl]phenoxy}phenoxy]propionate], the Herbicidal activity in assay [8] is listed as 10.
For the compound `COC(=O)C(C)Oc1cccc(Oc2cc(-n3c(=O)cc(C(F)(F)F)n(C)c3=O)c(F)cc2Cl)c1` (centres unmarked) [Compound 2-1, methyl 2-[3-{2-chloro-4-fluoro-5-[3-methyl-2,6-dioxo-4-(trifluoromethyl)-1,2,3,6-tetrahydropyrimidin-1-yl]phenoxy}phenoxy]propionate], the emergence of barnyardgrass result in [1] is recorded as “completely controlled”. Besides, in [2], the “emergence of Ivyleaf morningglory” value is “completely controlled”. Further, the emergence of velvetleaf entry in assay [3] was “completely controlled”. In [4], the growth of barnyardgrass result is recorded as “completely controlled”. The growth of blackgrass entry in assay [5] is given as “completely controlled”. In addition, in assay [6], the “growth of Ivyleaf morningglory” value is listed as “completely controlled”. Also, the growth of velvetleaf result in assay [7] is recorded as “completely controlled”.
In the case of `COC(=O)C(C)Oc1ccccc1Oc1cc(-n2c(=O)cc(C(F)(F)F)n(C)c2=O)c(F)cc1Cl` (centres unmarked) [Compound 3-1, methyl 2-[2-{2-chloro-4-fluoro-5-[3-methyl-2,6-dioxo-4-(trifluoromethyl)-1,2,3,6-tetrahydropyrimidin-1-yl]phenoxy}phenoxy]propionate], the emergence of barnyardgrass entry in assay [1] was “completely controlled”. Besides, the “emergence of Ivyleaf morningglory” value in assay [2] was “completely controlled”. Further, in assay [3], the emergence of velvetleaf entry is “completely controlled”. Besides, in assay [4], the growth of barnyardgrass entry is “completely controlled”. Also, the growth of blackgrass result in assay [5] was “completely controlled”. In addition, the “growth of Ivyleaf morningglory” value in assay [6] is listed as “completely controlled”. Further, the growth of velvetleaf entry in assay [7] is reported as “completely controlled”.
In the case of `Cn1c(C(F)(F)F)cc(=O)n(-c2cc(Oc3ccccc3OCC(=O)OC(C)(C)C)c(Cl)cc2F)c1=O` [Compound 3-16], the growth of barnyardgrass result in [9] is recorded as “completely controlled”. Also, the “growth of Ivyleaf morningglory” value in [10] is on record as “completely controlled”. Also, the growth of velvetleaf result in assay [11] was “completely controlled”. Moreover, the emergence of barnyardgrass entry in assay [12] is reported as “completely controlled”. For the same compound, the emergence of blackgrass result in assay [13] was “completely controlled”. Besides, the “emergence of Ivyleaf morningglory” value in assay [14] is “completely controlled”. The emergence of velvetleaf result in assay [15] was “completely controlled”.
Consider `C=CCOC(=O)COc1ccccc1Oc1cc(-n2c(=O)cc(C(F)(F)F)n(C)c2=O)c(F)cc1Cl` [Compound 3-20, allyl [2-{2-chloro-4-fluoro-5-[3-methyl-2,6-dioxo-4-(trifluoromethyl)-1,2,3,6-tetrahydropyrimidin-1-yl]phenoxy}phenoxy]acetate], for which the growth of barnyardgrass entry in assay [9] is given as “completely controlled”. Moreover, the “growth of Ivyleaf morningglory” value in [10] is reported as “completely controlled”. Moreover, in assay [11], the growth of velvetleaf entry is listed as “completely controlled”. The emergence of barnyardgrass result in assay [12] is “completely controlled”. The emergence of blackgrass entry in assay [13] is “completely controlled”. In [14], the “emergence of Ivyleaf morningglory” value is listed as “completely controlled”. Also, the emergence of velvetleaf result in [15] is “completely controlled”.
As to `CC(C)COC(=O)COc1ccccc1Oc1cc(-n2c(=O)cc(C(F)(F)F)n(C)c2=O)c(F)cc1Cl` [Compound 3-198, isobutyl [2-{2-chloro-4-fluoro-5-[3-methyl-2,6-dioxo-4-(trifluoromethyl)-1,2,3,6-tetrahydropyrimidin-1-yl]phenoxy}phenoxy]acetate], the growth of barnyardgrass entry in assay [9] is “completely controlled”. Besides, in assay [10], the “growth of Ivyleaf morningglory” value was “completely controlled”. Besides, in assay [11], the growth of velvetleaf entry is listed as “completely controlled”. For the same compound, the emergence of barnyardgrass entry in [12] is recorded as “completely controlled”. For the same compound, the emergence of blackgrass result in [13] is reported as “completely controlled”. The “emergence of Ivyleaf morningglory” value in assay [14] was “completely controlled”. Besides, the emergence of velvetleaf entry in assay [15] is “completely controlled”.
Regarding `CCOC(=O)C(C)Oc1ccc(Oc2cc(-n3c(=O)cc(C(F)(F)F)n(N)c3=O)c(F)cc2Cl)cc1` (centres unmarked) [Compound A, reference compound], the Herbicidal activity in [8] was 5.
